The source of these data is PMC4448990 (Pharmacology Research & Perspectives, 2015).

Each structure is given as a SMILES string. Where two headings read alike, the source gives them in different places. Marks after values point to notes of the source that are not given here.

Series [1] deals with human Nav1.3 sodium channels (Homo sapiens, UniProt Q9NY46). As to the kind of experiment: whole-cell patch clamp, Nav1.3 in CHO-K1 cells. Format: cell-based. As to conditions: 250 μmol/L; for Fast inactivation V0.5 / Slow inactivation V0.5: n = 3–6; for time constant for entering the slow inactivated state: control 20.29 sec. On the technique in general: In patch-clamp work, channel activity is measured electrically.

In series [2] the target is human GRIN1/GRIN2B NMDA receptor (Homo sapiens, UniProt Q05586+Q13224). Nature of the series: submaximal NMDA-receptor-mediated currents in HEK cells. Format: cell-based.
For another series, the system named is kindling epileptogenesis. As to the kind of experiment: bilateral corneal kindling. As to conditions: Table 5 summary; values are ED50 (mg/kg). Format: in vivo, mouse.
A further series has as its target human GRIA1 receptor (Homo sapiens, UniProt P42261). As to the kind of experiment: AMPA-receptor-mediated currents in CHO cells. Format: cell-based.
The target of series [3] is T1, human GlyRα3 glycine receptors (Homo sapiens, UniProt O75311).
T1 sequence (O75311 34-464): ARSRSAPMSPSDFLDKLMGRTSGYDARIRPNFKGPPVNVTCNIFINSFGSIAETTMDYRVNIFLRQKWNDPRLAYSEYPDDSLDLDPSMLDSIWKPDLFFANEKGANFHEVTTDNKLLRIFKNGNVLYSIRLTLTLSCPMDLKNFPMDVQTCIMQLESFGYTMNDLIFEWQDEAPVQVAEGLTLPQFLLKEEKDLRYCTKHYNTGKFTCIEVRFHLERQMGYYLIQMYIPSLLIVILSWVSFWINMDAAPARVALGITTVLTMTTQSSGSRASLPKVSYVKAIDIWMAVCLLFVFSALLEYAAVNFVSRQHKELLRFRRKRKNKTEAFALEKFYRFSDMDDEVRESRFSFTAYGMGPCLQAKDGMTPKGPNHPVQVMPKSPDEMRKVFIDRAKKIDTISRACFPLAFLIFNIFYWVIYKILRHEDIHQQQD
Nature of the series: submaximal glycine currents in CHO cells. Format: cell-based.

The target in another series is hCav2.1 calcium channels (Homo sapiens, UniProt O00555). As to the kind of experiment: whole-cell patch clamp, hCav2.1 in CHO cells. The series is classed as cell-based. As to conditions: IC50, hCav2.1 calcium peak currents, 0.3–1000 μmol/L, holding potential −80 mV.
Series [4] concerns the target human α3β2γ2 GABAA receptors (Homo sapiens, UniProt P18507+P34903+P47870). Nature of the series: submaximal GABA currents in Ltk cells. The series is classed as cell-based.
The subject of series [5] is transient Na+ current (INaT). As to conditions: ref Döser et al. [2013b], [2015]; cited from earlier work.
The test system of the next series is Racine stage 5 seizures. Nature of the series: proconvulsant effects. The series is classed as in vivo.
The test system of series [6] is sodium channels endogenously expressed in N1E-115 mouse neuroblastoma cells. As to conditions: 250 μmol/L; ref Hebeisen et al. [2014]; cited from earlier work.
Series [7] addresses human α2β2γ2 GABAA receptors (Homo sapiens, UniProt P18507+P47869+P47870). Nature of the series: submaximal GABA currents in Ltk cells. The series is classed as cell-based.
The target in series [8] is hKv7.2 potassium channels (Homo sapiens, UniProt O43526). As to the kind of experiment: whole-cell patch clamp, hKv7.2 in CHO cells. The series is classed as cell-based.
The target in series [9] is human α5β2γ2 GABAA receptors (Homo sapiens, UniProt P18507+P31644+P47870). As to the kind of experiment: submaximal GABA currents in Ltk cells. Format: cell-based.
For series [10], the target named is human α1β2γ2 GABAA receptors (Homo sapiens, UniProt P14867+P18507+P47870). As to the kind of experiment: submaximal GABA currents in Ltk cells. The series is classed as cell-based.
Series [11] has as its system latrunculin A-induced seizures. To be noted: ESL 100 mg/kg oral, ref Sierra-Paredes et al. [2011], 2014, cited from earlier work.
The subject of a further series is MES-induced seizures. As to conditions: mouse, ESL 50 mg/kg p.o.; ref Pires et al. [2011]; cited from earlier work.
For series [12] the following is noted: ref Doty et al. [2007]; cited from earlier work.
Series [13] is described as follows: human plasma and CSF pharmacokinetics. As to conditions: LCM 600 mg twice daily, protein binding ∼15%. The series is classed as in vivo.
The conditions of series [14]: ref Nunes et al. [2013], cited from earlier work.

Chain of human α1β2γ2 GABAA receptors (P14867 28-456): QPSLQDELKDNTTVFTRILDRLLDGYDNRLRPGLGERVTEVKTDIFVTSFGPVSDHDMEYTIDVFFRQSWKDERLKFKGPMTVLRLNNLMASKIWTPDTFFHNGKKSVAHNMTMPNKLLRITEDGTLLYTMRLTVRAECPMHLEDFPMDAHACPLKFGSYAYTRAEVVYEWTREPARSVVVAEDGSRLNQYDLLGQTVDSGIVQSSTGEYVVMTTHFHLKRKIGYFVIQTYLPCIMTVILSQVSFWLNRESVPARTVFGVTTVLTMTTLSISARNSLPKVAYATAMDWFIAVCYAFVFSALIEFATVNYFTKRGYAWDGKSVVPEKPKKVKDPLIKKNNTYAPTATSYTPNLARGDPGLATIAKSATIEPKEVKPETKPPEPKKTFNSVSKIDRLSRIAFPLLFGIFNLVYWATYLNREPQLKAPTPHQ
Chain of human α1β2γ2 GABAA receptors (P47870 25-512 limits assumed): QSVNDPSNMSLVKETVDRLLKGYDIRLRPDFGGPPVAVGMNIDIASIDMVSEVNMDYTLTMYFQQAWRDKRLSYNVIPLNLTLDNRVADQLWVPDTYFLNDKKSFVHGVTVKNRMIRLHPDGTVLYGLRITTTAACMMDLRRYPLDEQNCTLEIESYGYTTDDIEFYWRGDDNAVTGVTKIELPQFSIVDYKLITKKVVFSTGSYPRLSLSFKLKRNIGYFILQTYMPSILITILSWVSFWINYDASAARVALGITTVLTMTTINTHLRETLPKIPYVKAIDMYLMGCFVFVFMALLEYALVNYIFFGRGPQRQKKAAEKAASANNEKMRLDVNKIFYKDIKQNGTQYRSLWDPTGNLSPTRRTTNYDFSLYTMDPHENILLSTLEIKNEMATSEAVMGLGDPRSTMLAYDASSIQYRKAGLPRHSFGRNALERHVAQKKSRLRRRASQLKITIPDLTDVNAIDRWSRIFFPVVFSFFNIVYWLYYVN
Chain of human α1β2γ2 GABAA receptors (P18507 40-475): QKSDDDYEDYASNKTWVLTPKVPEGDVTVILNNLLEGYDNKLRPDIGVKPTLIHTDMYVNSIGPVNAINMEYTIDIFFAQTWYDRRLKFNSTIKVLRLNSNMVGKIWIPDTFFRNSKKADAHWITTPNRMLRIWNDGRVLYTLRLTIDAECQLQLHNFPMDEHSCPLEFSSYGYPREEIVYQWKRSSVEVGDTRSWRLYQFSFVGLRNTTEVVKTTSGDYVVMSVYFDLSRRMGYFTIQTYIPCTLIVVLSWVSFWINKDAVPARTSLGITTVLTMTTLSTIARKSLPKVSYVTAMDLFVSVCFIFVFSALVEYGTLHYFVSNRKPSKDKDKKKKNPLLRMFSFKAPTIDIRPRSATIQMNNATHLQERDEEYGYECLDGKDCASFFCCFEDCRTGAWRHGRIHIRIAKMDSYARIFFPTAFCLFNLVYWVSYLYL
Chain of human α5β2γ2 GABAA receptors (P31644 32-462): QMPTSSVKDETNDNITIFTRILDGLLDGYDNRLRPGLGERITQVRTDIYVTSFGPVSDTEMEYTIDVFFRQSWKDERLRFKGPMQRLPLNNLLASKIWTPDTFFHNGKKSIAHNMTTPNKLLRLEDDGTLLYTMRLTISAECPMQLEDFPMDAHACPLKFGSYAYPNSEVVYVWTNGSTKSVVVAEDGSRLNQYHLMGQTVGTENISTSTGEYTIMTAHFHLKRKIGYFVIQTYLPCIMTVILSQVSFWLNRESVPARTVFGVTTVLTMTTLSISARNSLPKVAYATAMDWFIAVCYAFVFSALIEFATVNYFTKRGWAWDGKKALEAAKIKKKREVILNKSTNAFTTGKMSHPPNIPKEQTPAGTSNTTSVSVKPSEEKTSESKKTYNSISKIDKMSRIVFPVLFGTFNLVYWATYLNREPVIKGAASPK
Chain of human α5β2γ2 GABAA receptors (P47870 25-512 limits assumed): as the sequence (P47870 25-512 limits assumed) above
Chain of human α5β2γ2 GABAA receptors (P18507 40-475): as the sequence (P18507 40-475) above
Chain of human α2β2γ2 GABAA receptors (P47869 29-451): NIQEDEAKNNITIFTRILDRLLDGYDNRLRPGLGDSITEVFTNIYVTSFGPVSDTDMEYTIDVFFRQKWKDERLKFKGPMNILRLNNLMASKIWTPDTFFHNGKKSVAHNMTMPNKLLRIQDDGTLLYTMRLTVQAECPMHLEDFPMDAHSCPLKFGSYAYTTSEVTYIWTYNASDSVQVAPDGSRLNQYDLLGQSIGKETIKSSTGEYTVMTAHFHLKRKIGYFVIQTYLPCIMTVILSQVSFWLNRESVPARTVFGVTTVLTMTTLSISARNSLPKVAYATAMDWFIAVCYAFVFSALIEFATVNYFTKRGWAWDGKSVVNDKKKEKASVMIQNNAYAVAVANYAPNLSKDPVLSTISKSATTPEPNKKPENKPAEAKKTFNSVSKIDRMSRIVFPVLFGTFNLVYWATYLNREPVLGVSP
Chain of human α2β2γ2 GABAA receptors (P47870 25-512 limits assumed): as the sequence (P47870 25-512 limits assumed) above
Chain of human α2β2γ2 GABAA receptors (P18507 40-475): as the sequence (P18507 40-475) above
Chain of human α3β2γ2 GABAA receptors (P34903 29-492): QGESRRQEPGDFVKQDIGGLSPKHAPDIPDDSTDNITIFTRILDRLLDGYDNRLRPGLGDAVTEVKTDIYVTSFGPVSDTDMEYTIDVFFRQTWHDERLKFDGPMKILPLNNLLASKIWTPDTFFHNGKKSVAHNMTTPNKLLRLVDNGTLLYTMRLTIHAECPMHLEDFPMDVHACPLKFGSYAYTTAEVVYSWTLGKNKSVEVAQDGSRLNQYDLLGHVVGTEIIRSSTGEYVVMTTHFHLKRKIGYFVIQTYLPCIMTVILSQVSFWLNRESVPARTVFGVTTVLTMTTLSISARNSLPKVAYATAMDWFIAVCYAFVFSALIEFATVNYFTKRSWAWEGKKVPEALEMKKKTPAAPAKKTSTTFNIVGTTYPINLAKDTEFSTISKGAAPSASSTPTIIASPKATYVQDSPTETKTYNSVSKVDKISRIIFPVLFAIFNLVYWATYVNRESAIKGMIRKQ
Chain of human α3β2γ2 GABAA receptors (P47870 25-512 limits assumed): as the sequence (P47870 25-512 limits assumed) above
Chain of human α3β2γ2 GABAA receptors (P18507 40-475): as the sequence (P18507 40-475) above
Chain of human Nav1.3 sodium channels (Q9NY46 whole entry): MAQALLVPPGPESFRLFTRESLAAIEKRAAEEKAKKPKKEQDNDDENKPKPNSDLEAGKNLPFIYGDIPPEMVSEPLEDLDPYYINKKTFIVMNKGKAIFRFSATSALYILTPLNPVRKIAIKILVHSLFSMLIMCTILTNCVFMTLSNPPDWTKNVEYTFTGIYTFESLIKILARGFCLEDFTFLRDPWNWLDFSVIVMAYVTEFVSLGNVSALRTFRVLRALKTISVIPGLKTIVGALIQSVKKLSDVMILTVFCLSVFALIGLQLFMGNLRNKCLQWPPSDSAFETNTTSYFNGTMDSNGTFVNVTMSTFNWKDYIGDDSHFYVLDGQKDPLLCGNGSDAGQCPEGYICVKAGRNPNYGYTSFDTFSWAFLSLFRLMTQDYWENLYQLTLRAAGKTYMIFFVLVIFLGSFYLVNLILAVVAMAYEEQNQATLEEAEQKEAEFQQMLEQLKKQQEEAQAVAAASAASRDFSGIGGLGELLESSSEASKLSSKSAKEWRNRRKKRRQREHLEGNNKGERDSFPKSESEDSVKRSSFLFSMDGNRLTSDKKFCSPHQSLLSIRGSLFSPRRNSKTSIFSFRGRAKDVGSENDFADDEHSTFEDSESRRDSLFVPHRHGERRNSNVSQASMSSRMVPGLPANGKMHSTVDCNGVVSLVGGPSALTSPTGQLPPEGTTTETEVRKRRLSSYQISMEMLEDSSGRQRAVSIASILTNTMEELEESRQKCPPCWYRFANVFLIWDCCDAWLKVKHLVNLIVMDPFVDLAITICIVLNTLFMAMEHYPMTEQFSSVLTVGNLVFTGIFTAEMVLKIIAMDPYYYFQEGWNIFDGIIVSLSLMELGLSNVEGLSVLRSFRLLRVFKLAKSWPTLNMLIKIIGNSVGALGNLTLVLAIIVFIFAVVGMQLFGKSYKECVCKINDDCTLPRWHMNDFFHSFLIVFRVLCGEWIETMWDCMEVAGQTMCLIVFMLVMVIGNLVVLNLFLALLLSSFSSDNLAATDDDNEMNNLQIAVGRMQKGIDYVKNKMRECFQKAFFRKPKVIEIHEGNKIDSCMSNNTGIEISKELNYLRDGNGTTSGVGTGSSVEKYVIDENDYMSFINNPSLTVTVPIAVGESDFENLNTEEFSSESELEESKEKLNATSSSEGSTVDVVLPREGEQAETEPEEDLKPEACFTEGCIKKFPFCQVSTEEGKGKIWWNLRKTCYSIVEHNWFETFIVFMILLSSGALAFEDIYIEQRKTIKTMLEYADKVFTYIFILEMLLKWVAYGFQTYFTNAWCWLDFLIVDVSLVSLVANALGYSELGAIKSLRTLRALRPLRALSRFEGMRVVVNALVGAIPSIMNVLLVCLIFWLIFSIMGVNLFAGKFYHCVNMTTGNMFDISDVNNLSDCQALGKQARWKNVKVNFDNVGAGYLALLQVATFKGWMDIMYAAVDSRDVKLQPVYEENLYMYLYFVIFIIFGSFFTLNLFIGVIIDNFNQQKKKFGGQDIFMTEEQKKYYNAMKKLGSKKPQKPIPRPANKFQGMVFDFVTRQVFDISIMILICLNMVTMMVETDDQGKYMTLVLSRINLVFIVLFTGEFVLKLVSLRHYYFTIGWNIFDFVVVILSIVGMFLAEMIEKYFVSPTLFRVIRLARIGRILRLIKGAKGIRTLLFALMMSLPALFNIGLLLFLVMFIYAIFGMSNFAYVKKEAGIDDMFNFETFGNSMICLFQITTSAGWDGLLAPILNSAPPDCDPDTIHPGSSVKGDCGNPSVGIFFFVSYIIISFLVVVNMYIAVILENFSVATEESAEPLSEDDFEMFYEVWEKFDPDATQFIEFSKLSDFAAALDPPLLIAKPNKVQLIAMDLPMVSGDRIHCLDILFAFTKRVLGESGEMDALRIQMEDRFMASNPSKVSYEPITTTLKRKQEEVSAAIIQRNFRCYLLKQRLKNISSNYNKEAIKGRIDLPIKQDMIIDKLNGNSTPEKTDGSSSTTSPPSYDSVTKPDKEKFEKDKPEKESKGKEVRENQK

For `NC(=O)N1c2ccccc2C=Cc2ccccc21` [CBZ, carbamazepine], the “Fast inactivation V0.5” value in series [1] (mean ± SEM) is recorded as −72.33 ± 5.04 mV. Also, the “Slow inactivation V0.5” value in [1] (mean ± SEM) is −21.56 ± 3.23 mV. Besides, in series [1] (versus control (bath), mean ± SEM), the “Fast inactivation, individual shifts” value is −14.35 mV. Further, the “time constant for entering the slow inactivated state” value (shortened to “time constant”) in series [1] is listed as “not affected”. For the same molecule, the concentration for half-maximal inhibition (IC50) (in general, the concentration needed to halve the response being measured) in [2] amounted to 214 µM; in [3], 441 µM; at hCav2.1 calcium channels, 452 µM; in series [8], 572 µM. The “Corneal kindling (antiepileptogenic models)” value in the series on kindling epileptogenesis is given as 140 mg/kg. At human GRIA1 receptor (CHO cells, human GRIA1), the “IC50, AMPA currents” value is “neither eslicarbazepine nor CBZ significantly changed AMPA currents”. Also, the “GABA inward current stimulation, α3β2γ2, Mean ± SEM” value in series [4] (50 μmol/L) is 93.3 ± 4.1; in series [4] (100 μmol/L) it was 112.8 ± 5.4; in series [4] (250 μmol/L), 131.1 ± 9.4; in series [4] (500 μmol/L) it was 120.3 ± 11.8; in series [4] (1000 μmol/L), 166.7 ± 21.0. Besides, the “increase of submaximal α3β2γ2 GABA currents” value in series [4] (1000 μmol/L) amounted to 66%. The “inhibition of firing of DGCs, control versus pilocarpine-treated rats” value in [5] is given as “significantly reduced in chronic experimental epilepsy”. In addition, in the series on Racine stage 5 seizures (at 45 mg/kg), the “Racine stage 5 seizures (proconvulsant effects)” value turned out to be 80% ^**. The “recovery of fast inactivated channels” value in series [6] was “required longer pulses to recover”. For the same molecule, the “GABA inward current stimulation, α2β2γ2, Mean ± SEM” value is recorded as 97.9 ± 3.3 in series [7] (50 μmol/L); 111.4 ± 2.7 in [7] (100 μmol/L); 109.0 ± 7.6 in series [7] (250 μmol/L); 103.6 ± 7.6 in series [7] (500 μmol/L); 104.2 ± 2.7 in series [7] (1000 μmol/L). The “GABA inward current stimulation, α5β2γ2, Mean ± SEM” value in series [9] (50 μmol/L) came out at 103.8 ± 1.5; in series [9] (100 μmol/L), 103.8 ± 4.5; in [9] (250 μmol/L), 93.6 ± 4.3; in series [9] (500 μmol/L), 80.7 ± 5.9; in series [9] (1000 μmol/L), 63.0 ± 4.5. The “GABA inward current stimulation, α1β2γ2, Mean ± SEM” value in series [10] (50 μmol/L) was determined as 104.3 ± 5.0; in series [10] (100 μmol/L), 117.4 ± 4.9; in [10] (250 μmol/L) it was 115.7 ± 5.3; in [10] (500 μmol/L), 132.4 ± 5.3; in series [10] (1000 μmol/L), 150.3 ± 15.5. Also, in series [10] (1000 μmol/L), the “increase of submaximal α1β2γ2 GABA currents” value is given as 50%.

On to `N[C@H](CCCP(=O)(O)O)C(=O)O` [D-AP5, D-(−)-2-amino-5-phosphonopentanoic], for which, in [2] (read-out: IC50, NMDA receptor-mediated currents, submaximal currents, HEK cells GRIN1/GRIN2B), the 50% inhibitory concentration (IC50) amounted to 7 µM.

As for `CC(=O)O[C@H]1Cc2ccccc2N(C(N)=O)c2ccccc21` [ESL, (S)-10-acetoxy-10,11-dihydro-5H-dibenz/b,f/azepine-5-carboxamide], in the series on kindling epileptogenesis, the “Corneal kindling (antiepileptogenic models)” value amounted to 30 mg/kg. For the same molecule, in series [11] (microdialysate), the “hippocampal extracellular glutamate levels” value is given as “significantly reduced glutamate levels”. Further, the “acute and chronic latrunculin A-induced seizures and EEG chronic signs of paroxysmal activity” value in series [11] (Swiss mice, previous to latrunculin A microperfusion) is “completely prevented”. Moreover, the “Racine stage 5 seizures (proconvulsant effects)” value with Racine stage 5 seizures (at 240 mg/kg) is on record as 22% ^*. Further, the “protection against MES-induced seizures” value with MES-induced seizures is listed as 97%.

On to `COC[C@@H](NC(C)=O)C(=O)NCc1ccccc1` [LCM, lacosamide], for which, in series [1] (mean ± SEM), the “Fast inactivation V0.5” value is −53.54 ± 3.95 mV and the “Slow inactivation V0.5” value is listed as −37.04 ± 2.72 mV. For the same molecule, in [1], the “time constant” value was 10.91 s. Further, in series [12], the LCM protein binding is recorded as around 15%. Besides, in series [6], the “recovery of fast inactivated channels” value is on record as “recovered similar to control conditions”. Moreover, the “LCM-free drug, peak plasma” value in series [13] was 49 µmol/L.

For `NS(=O)(=O)c1cccc2c1c([N+](=O)[O-])cc1nc(O)c(O)nc12` [NBQX, 2,3-Dioxo-6-nitro-1,2,3,4-tetrahydrobenzo[f]quinoxaline-7-sulfonamide], half-maximal inhibition against human GRIA1 receptor (IC50) was put at 19 µM.

In the case of `NC(=O)N1c2ccccc2CC(=O)c2ccccc21` [OXC, oxcarbazepine], in series [1] (mean ± SEM), the “Fast inactivation V0.5” value is listed as −55.95 ± 2.91 mV and the “Slow inactivation V0.5” value was −19.47 ± 4.55 mV. Further, the “time constant” value in series [1] is given as “not affected”. The “CSF Cmax of nonmetabolized OXC” value in series [14] (ESL 1200 mg QD) is 0.38 µmol/L. Further, the “CSF Cmax of nonmetabolized OXC” value in series [14] (OXC 600 mg BID) was 1.82 µmol/L. Also, in series [6], the “recovery of fast inactivated channels” value is reported as “required longer pulses to recover”.

`O=C1C[C@@H]2OCC=C3CN4CC[C@]56c7ccccc7N1[C@H]5[C@H]2[C@H]3C[C@H]46` [Strychnine] displayed an IC50 in series [3] of 0.052 µM.

In the case of `Cc1ncc2n1-c1ccc(Cl)cc1C(c1ccccc1F)=NC2` [midazolam], the “increase of submaximal α1β2γ2 GABA currents” value in series [10] (3 μmol/L) is recorded as around 80%.
